The record followed here is PubChem BioAssay AID1259411 (Chemical Carcinogenesis Research Information System (CCRIS), 2018).

In this data set the test system is rodent carcinogenicity bioassays, tumor incidence. In words: CCRIS carcinogenicity studies. The method in brief:
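Archive of carcinogenicity, mutagenicity, tumor promotion and tumor inhibition results drawn from journals, NCI reports and other sources, expert-reviewed; covers 1985-2011 and is no longer updated.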

Active and inactive are the calls of the source. The rule behind the calls is not given here.

Regarding `Nc1cc(Cl)ccc1O`, the carcinogen call was “active; positive” (Species: Rat, Strain/Sex: F344/DuCrlCrlj / Female, Route: Oral, Dose: 0, 1280, 3200, 8000 ppm in diet for 2 yr study duration, Dose: 0, 1280, 3200, 8000 ppm in diet for 2 yr study duration, Tumor Site: Type of Lesion: Forestomach: squamous cell papilloma/carcinoma) and “active; positive” (Species: Rat, Strain/Sex: F344/DuCrlCrlj / Male, Route: Oral, Dose: 0, 1280, 3200, 8000 ppm in diet for 2 yr study duration, Dose: 0, 1280, 3200, 8000 ppm in diet for 2 yr study duration, Tumor Site: Type of Lesion: Forestomach: squamous cell papilloma/carcinoma. Urinary bladder: papilloma/carcinoma).

With `CC(I)C1OCC(CO)O1` (stereo not drawn), the carcinogen call (Species: MOUSE, Strain/Sex: B6C3F1/FEMALE, Route: GAVAGE, Dose: 0, 62, 125 MG/KG IN WATER 5 D/WK FOR 103 WK (STUDY DURATION: 106 WK), Dose: 0, 62, 125 MG/KG IN WATER 5 D/WK FOR 103 WK (STUDY DURATION: 106 WK), Tumor Site: Type of Lesion: FORESTOMACH: SQUAMOUS CELL PAPILLOMA, ANTERIOR PITUTARY GLAND: ADENOMA, HARDERIAN GLAND: ADENOMA, ADENOMA OR CARCINOMA, Tumor Site: Type of Lesion: FORESTOMACH: SQUAMOUS CELL PAPILLOMA, ANTERIOR PITUTARY GLAND: ADENOMA, HARDERIAN GLAND: ADENOMA, ADENOMA OR CARCINOMA) is “active; positive”; the carcinogen call (Species: MOUSE, Strain/Sex: B6C3F1/MALE, Route: GAVAGE, Dose: 0, 125, 250 MG/KG IN WATER 5 D/WK FOR 103 WK (STUDY DURATION: 106 WK), Dose: 0, 125, 250 MG/KG IN WATER 5 D/WK FOR 103 WK (STUDY DURATION: 106 WK)) was “inactive; negative”; the carcinogen call (Species: RAT, Strain/Sex: F344/FEMALE, Route: GAVAGE, Dose: 0, 62, 125 MG/KG IN WATER 5 D/WK FOR 103 WK (STUDY DURATION: 105 WK), Dose: 0, 62, 125 MG/KG IN WATER 5 D/WK FOR 103 WK (STUDY DURATION: 105 WK)) is “inactive; negative”; the carcinogen call (Species: RAT, Strain/Sex: F344/MALE, Route: GAVAGE, Dose: 0, 125, 250 MG/KG IN WATER 5 D/WK FOR 103 WK (STUDY DURATION: 105 WK), Dose: 0, 125, 250 MG/KG IN WATER 5 D/WK FOR 103 WK (STUDY DURATION: 105 WK), Tumor Site: Type of Lesion: HEMATOPOIETIC SYSTEM: MONONUCLEAR CELL LEUKEMIA, THYROID GLAND: FOLLICULAR CELL CARCINOMA) is “active; positive”.

Turning to `Cc1cnc(C2=NC(C)(C(C)C)C(=O)N2)c(C(=O)O)c1` (stereo not drawn), the carcinogen call was “inactive; negative” (Species: Mouse, Strain/Sex: CD-1[Crl(ICR)BR]/Female (55/Group), Route: Oral, Dose: 0, 1750, 3500, 7000 ppm of 96.9% imazapic in diet for 18 mo, study duration 18 mo, Dose: 0, 1750, 3500, 7000 ppm of 96.9% imazapic in diet for 18 mo, study duration 18 mo); “inactive; negative” (Species: Mouse, Strain/Sex: CD-1[Crl(ICR)BR]/Male (55/Group), Route: Oral, Dose: 0, 1750, 3500, 7000 ppm of 96.9% imazapic in diet for 18 mo, study duration 18 mo, Dose: 0, 1750, 3500, 7000 ppm of 96.9% imazapic in diet for 18 mo, study duration 18 mo); “inactive; negative” (Species: Rat, Strain/Sex: Crl:CD(SD)BR/Female (55/Group), Route: Oral, Dose: 0, 5000, 10,000, 20,000 ppm of 96.4% imazapic in diet for 24 mo, study duration 24 mo, Dose: 0, 5000, 10,000, 20,000 ppm of 96.4% imazapic in diet for 24 mo, study duration 24 mo); “inactive; negative” (Species: Rat, Strain/Sex: Crl:CD(SD)BR/Male (55/Group), Route: Oral, Dose: 0, 5000, 10,000, 20,000 ppm of 96.4% imazapic in diet for 24 mo, study duration 24 mo, Dose: 0, 5000, 10,000, 20,000 ppm of 96.4% imazapic in diet for 24 mo, study duration 24 mo).

On to `CC1(c2ccc(Oc3ccccc3)cc2)OC(=O)N(Nc2ccccc2)C1=O` (stereo not drawn), for which the carcinogen call was “inactive; negative” (Species: Mouse, Strain/Sex: CRL: CD1 (ICR)BR/Female (60/Group), Route: Oral, Dose: 0, 1.0, 9.8, 130, 392 mg/kg/day of 97.4% famoxadone in diet for 18 mo, study duration 18 mo, Dose: 0, 1.0, 9.8, 130, 392 mg/kg/day of 97.4% famoxadone in diet for 18 mo, study duration 18 mo); “inactive; negative” (Species: Mouse, Strain/Sex: CRL: CD1 (ICR)BR/Male (60/Group), Route: Oral, Dose: 0, 0.7, 6.8, 96, 274 mg/kg/day of 97.4% famoxadone in diet for 18 mo, study duration 18 mo, Dose: 0, 0.7, 6.8, 96, 274 mg/kg/day of 97.4% famoxadone in diet for 18 mo, study duration 18 mo); “inactive; negative” (Species: Rat, Strain/Sex: CRL: CD BR/Female (62/Group), Route: Oral, Dose: 0, 0.53, 2.15, 10.7, 23.0 mg/kg/day of 97.4% famoxadone in diet for 24 mo, study duration 24 mo, Dose: 0, 0.53, 2.15, 10.7, 23.0 mg/kg/day of 97.4% famoxadone in diet for 24 mo, study duration 24 mo); “inactive; negative” (Species: Rat, Strain/Sex: CRL: CD BR/Male (62/Group), Route: Oral, Dose: 0, 0.42, 1.62, 8.4, 16.8 mg/kg/day of 97.4% famoxadone in diet for 23 mo, study duration 23 mo, Dose: 0, 0.42, 1.62, 8.4, 16.8 mg/kg/day of 97.4% famoxadone in diet for 23 mo, study duration 23 mo).

Turning to `Nc1ccccc1C(=O)OC/C=C/c1ccccc1`, the carcinogen call runs as follows: (Species: MOUSE, Strain/Sex: B6C3F1/FEMALE, Route: ORAL, Dose: 0, 15000, 30000 PPM IN DIET FOR 103 WK (STUDY DURATION: 105-107 WK), Dose: 0, 15000, 30000 PPM IN DIET FOR 103 WK (STUDY DURATION: 105-107 WK), Tumor Site: Type of Lesion: LIVER: HEPATOCELLULAR ADENOMA OR CARCINOMA) “active; positive”; (Species: MOUSE, Strain/Sex: B6C3F1/MALE, Route: ORAL, Dose: 0, 15000, 30000 PPM IN DIET FOR 103 WK (STUDY DURATION: 105-107), Dose: 0, 15000, 30000 PPM IN DIET FOR 103 WK (STUDY DURATION: 105-107), Tumor Site: Type of Lesion: LIVER: HEPATOCELLULAR ADENOMA OR CARCINOMA) “active; positive”; (Species: RAT, Strain/Sex: F344/FEMALE, Route: ORAL, Dose: 0, 15000, 30000 PPM IN DIET FOR 103 WK (STUDY DURATION: 105-107 WK), Dose: 0, 15000, 30000 PPM IN DIET FOR 103 WK (STUDY DURATION: 105-107 WK)) “inactive; negative”; (Species: RAT, Strain/Sex: F344/MALE, Route: ORAL, Dose: 0, 15000, 30000 PPM IN DIET FOR 103 WK (STUDY DURATION: 105-107), Dose: 0, 15000, 30000 PPM IN DIET FOR 103 WK (STUDY DURATION: 105-107), Tumor Site: Type of Lesion: PANCREAS: ACINAR CELL ADENOMA OR CARCINOMA, KIDNEY (CORTEX): ADENOMA OR ADENOCARCINOMA (NOS)) “active; positive”.

For the molecule `C[C@H]1C(=O)O[C@@H]2CCN3CC=C(COC(=O)[C@](C)(O)[C@]1(C)O)[C@H]23`, where the note is “Species: RAT, Route: ORAL, Tumor Site: Type of Lesion: LIVER”, the carcinogen call is “active; positive”.

As for `NCCNc1cccc2ccccc12`, the carcinogen call (Species: MOUSE, Strain/Sex: B6C3F1/FEMALE, Route: ORAL, Dose: 0, 0.2, 0.3% OF DIET, TWA FOR HIGH DOSE, Dose: 0, 0.2, 0.3% OF DIET, TWA FOR HIGH DOSE) was “inactive; negative”; the carcinogen call (Species: MOUSE, Strain/Sex: B6C3F1/MALE, Route: ORAL, Dose: 0, 0.05, 0.1% OF DIET, Dose: 0, 0.05, 0.1% OF DIET) is “inactive; negative”; the carcinogen call (Species: RAT, Strain/Sex: F344/FEMALE, Route: ORAL, Dose: 0, 0.05, 0.1% OF DIET, Dose: 0, 0.05, 0.1% OF DIET) was “inactive; negative”; the carcinogen call (Species: RAT, Strain/Sex: F344/MALE, Route: ORAL, Dose: 0, 0.05, 0.1% OF DIET, Dose: 0, 0.05, 0.1% OF DIET) is “inactive; negative”.
